Patent US4822791A, “Pharmaceutical compositions of-2,2-1,1-[bis-2,2'-(3,1-benzoxazin-4-one)9 ethylenes” (priority 1984, dated 1989)

Tests used:
hyaluronidase = target: T1, hyaluronidase (Bos taurus, UniProt Q2YDK3); assay: Anti-hyaluronidase activity (modified Morgan-Elson method); assay type: biochemical; conditions: for IC50: hyaluronidase 340NF unit/ml, activating agent Compound 48/80 or CaCl2, read-out: IC50; for IC10: value marked (IC10), read-out: IC10 (printed in IC50 (mM) column); for IC20: value marked (IC20), read-out: IC20 (printed in IC50 (mM) column)
T1 sequence (Q2YDK3 36-553): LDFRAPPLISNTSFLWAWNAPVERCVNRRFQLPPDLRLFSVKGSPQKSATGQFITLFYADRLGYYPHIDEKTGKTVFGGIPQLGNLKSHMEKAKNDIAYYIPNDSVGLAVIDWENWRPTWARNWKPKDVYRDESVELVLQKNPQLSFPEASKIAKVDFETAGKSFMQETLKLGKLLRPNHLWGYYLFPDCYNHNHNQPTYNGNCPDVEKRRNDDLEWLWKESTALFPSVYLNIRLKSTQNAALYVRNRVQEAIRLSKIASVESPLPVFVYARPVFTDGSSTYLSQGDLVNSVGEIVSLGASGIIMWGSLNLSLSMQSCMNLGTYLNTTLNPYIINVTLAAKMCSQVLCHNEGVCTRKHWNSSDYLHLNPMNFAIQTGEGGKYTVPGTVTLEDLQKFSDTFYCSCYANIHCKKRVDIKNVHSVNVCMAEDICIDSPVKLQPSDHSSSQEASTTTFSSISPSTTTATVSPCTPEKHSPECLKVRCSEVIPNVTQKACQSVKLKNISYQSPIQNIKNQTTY
Protocol: A buffer soluticn of hyaluronidase (0.1 ml) was taken in a test tube and 0.2 ml each of the buffer solution of various compounds in various concentrations was added, and the mixture was preincubated at 37° C. for 20 minutes. Then, an activating agent (Compound 48/80 or CaCl2) (0.2 ml) was added to make the total amount 0.5 ml, which was incubated at 37° C. for 20 minutes. Then, potassium hyaluronate buffer solution (0.5 ml) was added, and the mixture was incubated at 37° C. for 40 minutes. After cooling, the mixture was treated with aqueous solution of 0.4N NaOH (0.2 ml) and neutralized to stop the reaction. The resulting product was subjecred to measurement of OD585 by the modified Morgan-Elson Method. […] (The final ccncentration of hyaluronidase was 340NF unit/ml.) [formula]

[1] = tested on: experimental ulcer model (Shay); assay: Anti-ulcer activity in experimental ulcer model (Shay); assay type: in vivo, Wistar strain male rats
Protocol: Using 5 eight-week old Wistar strain male rats of 1 group, the rats were previously fasted for […]. The compound of an amount proportionate to the body weight based on the body weight after fasting was administered intraduodenally or intraperitoneally.
Each test compound was evenly suspended or dissolved in an aqueous solution of 0.5% CMC ccntaining 0.1% Tween 80, and administered at the rate of 0.5 ml per 100 g of body weight of the animal. To the controls, only the solvent was administered.
Test was carried out in accordance with Shay's method. After 48 hours' fasting, 5 animals per group were subjected to laparotomy under ether anesthesia, the tract between pylorus of stomach and duodenum was ligated, and the solution of the compound was administered intraduodenally (id) or intraperitoneally (ip), followed by suturing the laparotomy part. Eight hours after administration of the compound liquid, each animal was sacrificed by ether anesthesia and stomach was removed. Then, evaluation on the ulcer condition on the inner surface of stomach, and determination of the amount of gastric juice, of acidity by alkali titration, and of pepsin titer based on substrate of hemoglovin were made on the stored gastric juice. With regard to the acidity, gastric juice amount, and pepsin titer, the results were shown in inhibition rate (%) based on the average value of the control groups.

CC(C)c1ccc(C=C(C(=O)Nc2ccccc2C(=O)O)C(=O)Nc2ccccc2C(=O)O)cc1 [Compound 27]
IC50 (hyaluronidase): 30 µM

O=C(CC(=O)Nc1cc(Cl)ccc1C(=O)O)Nc1cc(Cl)ccc1C(=O)O [Compound 05]
IC10 (hyaluronidase): 1.32 mM

O=C(Nc1ccccc1C(=O)O)C(=Cc1ccccc1)C(=O)Nc1cc(Cl)ccc1C(=O)O [Compound 46, 4-chloro-2,2'-[(1,3-dioxo-2-phenylmethylene-1,3-propanediyl)diimimo]bisbenzoic acid]
IC50 (hyaluronidase): 30 µM

O=C(Nc1ccccc1C(=O)O)C(=Cc1ccccc1)C(=O)Nc1ccccc1C(=O)O
IC50 (hyaluronidase): 35 µM

Cc1ccc(NC(=O)C(=Cc2ccccc2)C(=O)Nc2ccc(C)cc2C(=O)O)c(C(=O)O)c1 [Compound 17]
IC50 (hyaluronidase): 142 µM

COc1ccc(C(=O)O)cc1NC(=O)CC(=O)Nc1cc(C(=O)O)ccc1OC [Compound 08]
IC10 (hyaluronidase): 0.22 mM

COc1ccc(C(=O)O)cc1NC(=O)C(=Cc1ccccc1)C(=O)Nc1cc(C(=O)O)ccc1OC [Compound 18]
IC10 (hyaluronidase): 0.29 mM

O=C(Nc1ccccc1C(=O)O)C(=Cc1ccc(C(F)(F)F)cc1)C(=O)Nc1ccccc1C(=O)O [Compound 35]
IC50 (hyaluronidase): 15 µM

O=C(O)c1ccccc1NC(=O)C(Cc1ccccc1)C(=O)Nc1ccccc1C(=O)O [Compound 50, 2,2'-[(1,3-dioxo-2-phenylmethyl-1,3-propanediyl)diimino]bisbenzoic acid]
IC50 (hyaluronidase): 50 µM

O=C(Nc1cccc(C(=O)O)c1)C(=Cc1ccccc1)C(=O)Nc1cccc(C(=O)O)c1 [Compound 12]
IC50 (hyaluronidase): 65 µM

O=C(Nc1ccccc1C(=O)O)C(=Cc1ccc([N+](=O)[O-])cc1)C(=O)Nc1ccccc1C(=O)O [Compound 36, 2,2'-[[1,3-dioxo-2-(4-nitro)phenylmethylene-1,3-propanediyl]diimino]bisbenzoic acid]
IC50 (hyaluronidase): 25 µM

O=C(Nc1ccccc1C(=O)O)C(=Cc1ccccc1Cl)C(=O)Nc1ccccc1C(=O)O [Compound 32]
IC50 (hyaluronidase): 25 µM

O=C(Nc1ccccc1C(=O)O)C(=Cc1cccs1)C(=O)Nc1ccccc1C(=O)O [Compound 40, 2,2'-[[1,3-dioxo-2-{2-thienyl)methylene-1,3-propanediyl]diimino]bisbenzoicacid]
IC50 (hyaluronidase): 35 µM

O=C(Nc1ccccc1C(=O)O)C(=Cc1ccc(F)cc1)C(=O)Nc1ccccc1C(=O)O [Compound 34]
IC50 (hyaluronidase): 25 µM

Cn1cc(C=C(C(=O)Nc2ccccc2C(=O)O)C(=O)Nc2ccccc2C(=O)O)c2ccccc21 [Compound 45]
IC50 (hyaluronidase): 10 µM

CNC(=C[N+](=O)[O-])NCCSCc1ccc(CN(C)C)o1 [Ranitidine, reference compound]
Inhibition % Gastric Acidity ([1]; id 30 mg/kg): 63.0%
Inhibition % secretion amount of gastric juice ([1]; id 30 mg/kg): 25.2%
Inhibition % total pepsin titer ([1]; id 30 mg/kg): 20.6%

O=C(Nc1cc(Cl)ccc1C(=O)O)C(=Cc1ccccc1)C(=O)Nc1cc(Cl)ccc1C(=O)O [Compound 15]
IC50 (hyaluronidase): 55 µM

O=C(Nc1ccccc1C(=O)O)C(=Cc1ccc[nH]1)C(=O)Nc1ccccc1C(=O)O [Compound 42]
IC50 (hyaluronidase): 25 µM

CCOC(=O)c1ccccc1NC(=O)CC(=O)Nc1ccccc1C(=O)OCC [Compound 04]
IC10 (hyaluronidase): 0.015 mM

O=C(Nc1ccccc1C(=O)O)C(=Cc1ccsc1)C(=O)Nc1ccccc1C(=O)O [Compound 41, 2,2'-[(1,3-dioxo-2-(3-thienyl)methylene-1,3-propanediyl)diimino]bisbenzoicacid]
IC50 (hyaluronidase): 60 µM

O=C(Nc1ccccc1C(=O)O)C(=Cc1ccco1)C(=O)Nc1ccccc1C(=O)O [Compound 39]
IC50 (hyaluronidase): 40 µM

Cn1cccc1C=C(C(=O)Nc1ccccc1C(=O)O)C(=O)Nc1ccccc1C(=O)O [Compound 43, 2,2'-[(1,3-dioxo-2-(1-methyl-1H-pyrrol-2-yl)methylene-1,3-propanediyl)diimino]bisbenzoic acid]
IC50 (hyaluronidase): 40 µM

COc1ccc(C=C(C(=O)Nc2ccccc2C(=O)O)C(=O)Nc2ccccc2C(=O)O)cc1 [Compound 19]
IC50 (hyaluronidase): 13 µM

O=C(CC(=O)Nc1ccccc1C(=O)O)Nc1ccccc1C(=O)O [Compound 01, 2,2'-[(1,3-dioxo-1.3-propanediyl)diimino]bisbenzoic acid]
IC50 (hyaluronidase): 77 µM

O=C(Nc1ccccc1C(=O)O)C(=Cc1ccc2c(c1)OCO2)C(=O)Nc1ccccc1C(=O)O [Compound 25]
Inhibition % Gastric Acidity ([1]; id 100 mg/kg): 45.2%
Inhibition % secretion amount of gastric juice ([1]; id 100 mg/kg): 25.5%
Inhibition % total pepsin titer ([1]; id 100 mg/kg): 32.1%
Inhibition % Gastric Acidity ([1]; id 200 mg/kg): 80.0%
Inhibition % secretion amount of gastric juice ([1]; id 200 mg/kg): 50.7%
Inhibition % total pepsin titer ([1]; id 200 mg/kg): 40.5%
Inhibition % Gastric Acidity ([1]; ip 50 mg/kg): 67.4%
Inhibition % secretion amount of gastric juice ([1]; ip 50 mg/kg): 53.4%
Inhibition % total pepsin titer ([1]; ip 50 mg/kg): 82.2%
IC50 (hyaluronidase): 13 µM

O=C(Nc1ccccc1C(=O)O)C(=Cc1ccc(Br)cc1)C(=O)Nc1ccccc1C(=O)O [Compound 33]
IC50 (hyaluronidase): 15 µM

O=C(Nc1ccccc1C(=O)O)C(=Cc1cccc(Cl)c1)C(=O)Nc1ccccc1C(=O)O [Compound 31]
IC50 (hyaluronidase): 25 µM

Cc1ccc(NC(=O)CC(=O)Nc2ccc(C)cc2C(=O)O)c(C(=O)O)c1 [Compound 07]
IC10 (hyaluronidase): 0.66 mM
IC20 (hyaluronidase): 0.72 mM

O=C(CC(=O)Nc1cc(Cl)ccc1C(=O)O)Nc1ccccc1C(=O)O [Compound 09, 4-chloro-2,2'-[(1,3-dioxo-1,3propanediyl)diimino]bisbenzoic acid]
IC50 (hyaluronidase): 134 µM

O=C(Nc1ccccc1C(=O)O)C(=Cc1cccnc1)C(=O)Nc1ccccc1C(=O)O [Compound 44]
IC50 (hyaluronidase): 73 µM

O=C(Nc1ccc(C(=O)O)cc1)C(=Cc1ccccc1)C(=O)Nc1ccc(C(=O)O)cc1 [Compound 13]
IC50 (hyaluronidase): 55 µM

O=C(Nc1ccccc1C(=O)O)C(=Cc1cccc2ccccc12)C(=O)Nc1ccccc1C(=O)O [Compound 38]
IC50 (hyaluronidase): 23 µM

COc1cc(C=C(C(=O)Nc2ccccc2C(=O)O)C(=O)Nc2ccccc2C(=O)O)cc(OC)c1OC [Compound 23]
Inhibition % Gastric Acidity ([1]; id 100 mg/kg): 32.5%
Inhibition % secretion amount of gastric juice ([1]; id 100 mg/kg): 8.5%
Inhibition % total pepsin titer ([1]; id 100 mg/kg): 31.1%
Inhibition % Gastric Acidity ([1]; id 200 mg/kg): 40.2%
Inhibition % secretion amount of gastric juice ([1]; id 200 mg/kg): 11.2%
Inhibition % total pepsin titer ([1]; id 200 mg/kg): 41.2%
IC50 (hyaluronidase): 30 µM

N#Cc1ccc(C=C(C(=O)Nc2ccccc2C(=O)O)C(=O)Nc2ccccc2C(=O)O)cc1 [Compound 37]
IC50 (hyaluronidase): 17 µM

O=C(CC(=O)Nc1cccc(C(=O)O)c1)Nc1cccc(C(=O)O)c1 [Compound 02]
IC20 (hyaluronidase): 0.9 mM

CN(C)c1ccc(C=C(C(=O)Nc2ccccc2C(=O)O)C(=O)Nc2ccccc2C(=O)O)cc1 [Compound 28]
IC50 (hyaluronidase): 110 µM
